# Literature values, collected in US20140113001A1, “ENHANCED ACTIVITY HYDROGEN PEROXIDE DISINFECTANT” (Virox Technologies Inc., priority 2002, published 2014).
# Where two headings read alike, the source gives them in different places.
# Test system: Staphylococcus aureus
structure (smiles),measurement,setting,value
OO [hydrogen peroxide],time required to disinfect surfaces contaminated with staphylococcus aureus,0.1% w/w aqueous solution,60 min
same,time required to disinfect surfaces contaminated with staphylococcus aureus,25.8% w/w aqueous solution,0.333 min
